Experimental data as given in the supplement of paper PMC6045584.
± gives the standard deviation of the averaged measurements.

How the values were obtained:
[1] = compound: O=C(NOCC1CC1)c1ccc(F)c(F)c1Nc1ccc(I)cc1Cl; test: surviving fraction relative to DMSO-only wells; higher = less growth inhibition; settings: exposure time: 5 days
How it was run: (§1)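 In 384-well plates, 250–500 log-phase tumour cells per well were given 24 hours before five days of continuous exposure to inhibitors at 0.5, 1, 5, 10, 50, 100, 500 and 1000 nM. Surviving fraction is luminescence from CellTiter-Glo, normalised to the median of wells containing DMSO alone. Reading took place after 10 minutes at room temperature.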

PLX-4720 = compound: CCCS(=O)(=O)Nc1ccc(F)c(C(=O)c2c[nH]c3ncc(Cl)cc23)c1F [PLX-4720]; test: as above; settings: exposure time: 5 days
How it was run: as §1

Test System	surviving fraction ([1]; 0.5 nM)	surviving fraction ([1]; 1 nM)	surviving fraction ([1]; 5 nM)	surviving fraction ([1]; 10 nM)	surviving fraction ([1]; 50 nM)	surviving fraction ([1]; 100 nM)	surviving fraction ([1]; 500 nM)	surviving fraction ([1]; 1000 nM)	surviving fraction (PLX-4720; 0.5 nM)	surviving fraction (PLX-4720; 1 nM)	surviving fraction (PLX-4720; 5 nM)	surviving fraction (PLX-4720; 10 nM)	surviving fraction (PLX-4720; 50 nM)	surviving fraction (PLX-4720; 100 nM)	surviving fraction (PLX-4720; 500 nM)	surviving fraction (PLX-4720; 1000 nM)
CASKI CERVIX	0.931 ± 0.018	0.944 ± 0.038	0.95 ± 0.051	0.881 ± 0.032	0.766 ± 0.022	0.685 ± 0.045	0.474 ± 0.013	0.454 ± 0.02	0.795 ± 0.091	0.809 ± 0.029	0.847 ± 0.045	0.848 ± 0.033	0.97 ± 0.02	1.02 ± 0.033	0.998 ± 0.045	1.02 ± 0.058
CHLA90 AUTONOMIC GANGLIA	0.469 ± 0.022	0.987 ± 0.003	0.825 ± 0.05	0.894 ± 0.036	0.478 ± 0.044	0.763 ± 0.028	0.662 ± 0.044	0.69 ± 0.015	0.333 ± 0.039	0.922 ± 0.041	0.753 ± 0.041	0.929 ± 0.044	0.371 ± 0.013	0.94 ± 0.018	0.98 ± 0.049	1.07 ± 0.061
CME SYNOVIAL	0.301 ± 0.075	1.11 ± 0.064	1.04 ± 0.15	1.27 ± 0.12	0.584 ± 0.07	1.22 ± 0.17	0.993 ± 0.16	1.02 ± 0.27	0.101 ± 0.0087	0.904 ± 0.082	0.732 ± 0.072	0.945 ± 0.23	0.217 ± 0.021	1.24 ± 0.14	1.02 ± 0.14	1.12 ± 0.044
COLO320DM LARGE INTESTINE	0.544 ± 0.018	1.09 ± 0.032	0.98 ± 0.094	1.09 ± 0.094	0.747 ± 0.053	1.15 ± 0.029	1.11 ± 0.063	1.15 ± 0.043	0.376 ± 0.022	0.996 ± 0.12	0.921 ± 0.08	1.07 ± 0.11	0.462 ± 0.075	1.07 ± 0.086	1.03 ± 0.088	0.979 ± 0.079
DU4475 BREAST	0.859 ± 0.24	0.791 ± 0.12	0.794 ± 0.29	0.674 ± 0.064	0.49 ± 0.15	0.199 ± 0.11	0.0277 ± 0.0074	0.0263 ± 0.0078	0.783 ± 0.23	0.699 ± 0.14	0.791 ± 0.16	0.741 ± 0.1	0.597 ± 0.19	0.603 ± 0.17	0.0833 ± 0.03	0.0277 ± 0.0075
H23 LUNG	0.922 ± 0.025	0.931 ± 0.027	0.834 ± 0.0027	0.741 ± 0.062	0.484 ± 0.029	0.413 ± 0.01	0.341 ± 0.0071	0.342 ± 0.0067	0.873 ± 0.037	0.943 ± 0.057	0.93 ± 0.055	0.968 ± 0.068	0.971 ± 0.028	1.06 ± 0.018	1.06 ± 0.044	1.17 ± 0.014
HCC38 BREAST	1.14 ± 0.17	1.11 ± 0.19	1.01 ± 0.11	1.14 ± 0.093	0.998 ± 0.2	1.03 ± 0.22	1.21 ± 0.29	1.07 ± 0.14	0.812 ± 0.15	0.836 ± 0.19	0.893 ± 0.14	0.911 ± 0.17	1.03 ± 0.11	1.05 ± 0.28	1.12 ± 0.1	1.03 ± 0.28
HCC70 BREAST	0.939 ± 0.029	0.963 ± 0.03	1.02 ± 0.049	0.956 ± 0.058	0.818 ± 0.041	0.773 ± 0.052	0.601 ± 0.022	0.528 ± 0.033	1.02 ± 0.06	0.984 ± 0.14	1.04 ± 0.034	1.02 ± 0.034	1.03 ± 0.068	1.03 ± 0.091	1.03 ± 0.12	0.963 ± 0.082
HCC78 LUNG	0.787 ± 0.12	0.836 ± 0.085	0.841 ± 0.11	0.832 ± 0.25	0.898 ± 0.17	0.885 ± 0.15	0.486 ± 0.058	0.632 ± 0.097	0.318 ± 0.06	1.01 ± 0.17	0.964 ± 0.06	1.05 ± 0.3	0.761 ± 0.13	1.01 ± 0.077	0.869 ± 0.04	0.951 ± 0.12
HCC202 BREAST	1.38 ± 0.41	1.49 ± 0.64	1.47 ± 0.2	1.28 ± 0.26	1.46 ± 0.16	1.31 ± 0.099	1.37 ± 0.38	1.57 ± 0.043	0.964 ± 0.1	1.22 ± 0.12	1.08 ± 0.17	1.09 ± 0.046	1.2 ± 0.11	1.46 ± 0.26	1.12 ± 0.28	1.06 ± 0.33
